The values that follow come from patent US20110224197A1, “PYRIMIDINES AND PYRIDINES USEFUL AS INHIBITORS OF PROTEIN KINASES” (Vertex Pharmaceuticals Incorporated, priority 2008, published 2011).

The subject of assay [1] is human umbilical vein endothelial cells (HUVEC). The assay is described as follows: In vitro model of angiogenesis using HUVEC and skin fibroblasts. The format is cell-based. The following applies: HUVEC cultures. The text has this:
Compounds are screened for the ability to enhance angiogenesis in human umbilical vein endothelial cells (HUVEC). This method, adapted from Nakatsu et al., Microvas. Res. 2003, describes a protocol that recapitulates the major events essential for new vessel growth: budding, cell migration, cell proliferation, lumen formation, branching, and anastomosis.
HUVEC are used between P3 and P4. HUVEC are mixed with dextran coated cytodex 3 micro-carriers (Amersham Pharmacia) at a concentration of 400 HUVEC per bead in 1 ml of EGM-2 (2% FBS) medium (Clonetics). Beads with cells are then shaken gently every 20 minutes for 4 hours at 37° C. and 5% CO2. After incubating, beads with cells are transferred to a T-25 tissue culture flask and left for 12-16 hours in 5 ml of EGM-2 at 37° C. and 5% CO2.
The following day, beads with cells are washed three times with EGM-2 and re-suspended at a concentration of 200 cell-coated beads/ml in 2.5 mg/ml of fibrinogen (Sigma) with 0.15 U/ml of aprotinin (Sigma) at a pH of 7.4.
500 uL of fibrinogen/bead solution is then added to 0.625 U of thrombin (Sigma) in one well of a 24 well tissue culture plate. Fibrinogen/Bead solution is allowed to clot for 5 minutes at room temperature and then at 37° C. and 5% CO2 for 20 minutes. 1 mL of EGM-2 with 0.15 U/mL of aprotinin is then added to each well and equilibrated with the fibrin clot for 30 minutes at 37° C. and 5% CO2.
Next, media is removed from the well and replaced with 1 mL of fresh medium. […]
Angiogenesis is scored by quantification of images captured on an inverted microscope at 10× and 20× magnification for vessel length, number of vessels and branches per bead using NIH Image J software. […] YFP positive HUVEC are then cultured as described above and quantification of vessel formation is determined by calculating the area under the threshold fluorescence using NIH Image J software. In both cases, enhanced angiogenesis is determined by comparing compound treated cultures with a DMSO control culture at the same time point.

In assay [2] the test system is β-catenin. The assay is described as follows: β-catenin in brain, Post Stroke Model II. The following applies: all doses. It is filed as in vivo, rat. As for the experimental part: To track the activity of Compound I-37 in the CNS of rats subjected to MCAO, brains were removed and protein lysate was obtained (as described herein) from both vehicle treated and compound treated animals at the termination of the study. Lysates were analyzed by Western blot and probed for GSK-3α/β pTYR levels.
Protein lysate is obtained from the brains of all vehicle and compound-treated animals and is processed for biomarker analysis of GSK3α/β pTYR and β-catenin by Western blot assay to ensure compound activity on the target.

The mark [3] stands for this setting: concentrations shown to induce β-catenin.

With `Cc1nc(-c2ccccc2Cl)nc(Nc2n[nH]c3ncc(F)cc23)c1C` [Compound I-37, N-(2-(2-chlorophenyl)-5,6-dimethylpyrhnidin-4-yl)-5-fluoro-1H-pyrazolo[3,4-b]pyridin-3-amine], in assay [1] (10 nM, 7 days), the “vessel and network formation” value was “increase vessel and network formation”. Further, in assay [1] (setting [3]), the cell proliferation result is reported as “increased cell proliferation was observed” and the vessel formation result is given as “vessel formation was inhibited”. Also, the “induction of β-catenin” value in assay [2] is recorded as “no induction”.
